Data on 20 compounds can be found in PubChem BioAssay AID330 (DTP/NCI, 2004).

The test system of this experiment is P388 leukemia ip, CD2F1 mice, survival T/C. Nature of the experiment: NCI In Vivo Anticancer Drug Screen. Data for tumor model P388 Leukemia (intraperitoneal) in CD2F1 (CDF1) mice. To be noted: endpoint: median survival time, higher = longer survival. An outline of the steps:
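Mice carrying the transplanted tumor received test compound or vehicle. Survival was recorded in each group, and the value is the treated-group measurement divided by that of the vehicle-treated control group.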

The mark [1] stands for this setting: dose: 50.0 mg/kg/injection, schedule: Q01DX009 (ip), vehicle: saline with Tween-80.
Setting [2] is: dose: 100.0 mg/kg/injection, schedule: Q01DX009 (ip), vehicle: saline with Tween-80.
[3] abbreviates: dose: 50.0 mg/kg/injection, schedule: Q01DX005 (ip), vehicle: Klucel (hydroxypropylcellulose) (HPC).
Where [4] appears, read: dose: 100.0 mg/kg/injection, schedule: Q01DX005 (ip), vehicle: Klucel (hydroxypropylcellulose) (HPC).
The mark [5] stands for this setting: dose: 200.0 mg/kg/injection, schedule: Q01DX005 (ip), vehicle: Klucel (hydroxypropylcellulose) (HPC).
[6] abbreviates: dose: 50.0 mg/kg/injection, schedule: Q01DX005 (ip), vehicle: saline with Tween-80.
Where [7] appears, read: dose: 100.0 mg/kg/injection, schedule: Q01DX005 (ip), vehicle: saline with Tween-80.
Setting [8] is: dose: 200.0 mg/kg/injection, schedule: Q01DX005 (ip), vehicle: saline with Tween-80.

Values joined by “and” are separate entries in the source; they are usually repeats but may differ in a detail not shown here. Identical values can stand only once. Toxic doses and inconclusive results are not listed.

For the compound `Cc1nc2c([N+](=O)[O-])c(N3CCN(c4ccccc4)CC3)c([N+](=O)[O-])cc2[nH]1`, the T/C is 100 % of control under setting [1]; 100 % of control under setting [2]; 99 % of control (dose: 200.0 mg/kg/injection, schedule: Q01DX009 (ip), vehicle: saline with Tween-80).

Consider `CNCCNc1ccc(NCCNC)c2c1C(=O)c1ccccc1C2=O`, for which the T/C is 183 % of control (dose: 2.0 mg/kg/injection, schedule: Q01DX009 (ip), vehicle: acid diluted with saline); 175 % of control (dose: 4.0 mg/kg/injection, schedule: Q01DX009 (ip), vehicle: acid diluted with saline); 175 % of control (dose: 8.0 mg/kg/injection, schedule: Q01DX009 (ip), vehicle: acid diluted with saline); 200 % of control (dose: 12.5 mg/kg/injection, schedule: Q01DX009 (ip), vehicle: distilled water + Tween-80); 86 % of control (dose: 16.0 mg/kg/injection, schedule: Q01DX009 (ip), vehicle: acid diluted with saline).

Consider `CC1SC2(C(=O)N(CN3CCCCC3)c3ccccc32)N(c2ccccc2)C1=O` (centres undefined), for which the T/C reads like this: under setting [3], 90 % of control; under setting [4], 100 % of control; under setting [5], 94 % of control.

Regarding `C=C(C)C(=O)O[C@@H]1C/C(C)=C\[C@H](OC(C)=O)C[C@](C)(O)/C=C2/OC(=O)C(COC(C)=O)=C21`, the T/C (dose: 5.5 mg/kg/injection, schedule: Q01DX005 (ip), vehicle: Klucel (hydroxypropylcellulose) (HPC)) was 105 % of control and 110 % of control; the T/C (dose: 11.0 mg/kg/injection, schedule: Q01DX005 (ip), vehicle: Klucel (hydroxypropylcellulose) (HPC)) is 103 % of control and 109 % of control; the T/C (dose: 22.0 mg/kg/injection, schedule: Q01DX005 (ip), vehicle: Klucel (hydroxypropylcellulose) (HPC)) is 122 % of control.

On to `COc1ccc(-c2cnnc3c(-c4cccc(C(F)(F)F)c4)cnn23)cc1`, for which the T/C under setting [3] is 98 % of control, the T/C under setting [4] was 93 % of control and the T/C under setting [5] is 89 % of control.

With `CCc1ccc(C(C)(C)C)cc1`, the T/C runs as follows: (dose: 37.5 mg/kg/injection, schedule: Q01DX009 (ip), vehicle: saline with Tween-80) 110 % of control; under setting [1], 104 % of control; (dose: 75.0 mg/kg/injection, schedule: Q01DX009 (ip), vehicle: saline with Tween-80) 111 % of control; under setting [2], 109 % of control; (dose: 132.0 mg/kg/injection, schedule: Q01DX009 (ip), vehicle: saline with Tween-80) 113 % of control; (dose: 150.0 mg/kg/injection, schedule: Q01DX009 (ip), vehicle: saline with Tween-80) 102 % of control.

Regarding `CC(=O)Oc1cc2c(cc1OC(C)=O)C(=O)CCC=C2`, the T/C by setting is: (dose: 100.0 mg/kg/injection, schedule: Q04DX003 (ip), vehicle: saline sonified) 110 % of control; (dose: 200.0 mg/kg/injection, schedule: Q04DX003 (ip), vehicle: saline sonified) 100 % of control; (dose: 400.0 mg/kg/injection, schedule: Q04DX003 (ip), vehicle: saline sonified) 100 % of control.

With `CCCNC(=S)N/N=C(/C)c1nccc2ccccc12`, the T/C is, setting by setting: (dose: 100.0 mg/kg/injection, schedule: Q04DX003 (ip), vehicle: Klucel (hydroxypropylcellulose) (HPC)) 108 % of control; (dose: 200.0 mg/kg/injection, schedule: Q04DX003 (ip), vehicle: Klucel (hydroxypropylcellulose) (HPC)) 101 % of control; (dose: 400.0 mg/kg/injection, schedule: Q04DX003 (ip), vehicle: Klucel (hydroxypropylcellulose) (HPC)) 99 % of control.

For the compound `Cc1nc([N+](=O)[O-])c(Sc2nncc(-c3ccccc3)n2)n1C`, the T/C was 111 % of control under setting [3] and 104 % of control under setting [4].

As for `[N-]=[N+]=Nc1ccnc2cc(F)ccc12`, the T/C is 96 % of control (dose: 60.0 mg/kg/injection, schedule: Q01DX005 (ip), vehicle: saline with Tween-80); 104 % of control (dose: 120.0 mg/kg/injection, schedule: Q01DX005 (ip), vehicle: saline with Tween-80); 95 % of control (dose: 240.0 mg/kg/injection, schedule: Q01DX005 (ip), vehicle: saline with Tween-80).

On to `Cc1ccc2c(Nc3ccc(NS(C)(=O)=O)cc3)c3ccccc3nc2c1C`, for which the T/C (dose: 0.59 mg/kg/injection, schedule: Q01DX009 (ip), vehicle: saline with Tween-80) is 110 % of control; the T/C (dose: 5.0 mg/kg/injection, schedule: Q01DX009 (ip), vehicle: other) is 154 % of control; the T/C (dose: 10.0 mg/kg/injection, schedule: Q01DX009 (ip), vehicle: other) is 165 % of control; the T/C (dose: 19.4 mg/kg/injection, schedule: Q04DX003 (ip), vehicle: water) is 123 % of control; the T/C (dose: 20.0 mg/kg/injection, schedule: Q01DX009 (ip), vehicle: other) is 197 % of control; the T/C (dose: 22.0 mg/kg/injection, schedule: Q04DX003 (ip), vehicle: saline with Tween-80) is 154 % of control. The T/C by setting is: (dose: 33.0 mg/kg/injection, schedule: Q04DX003 (ip), vehicle: saline with Tween-80) 168 % of control; (dose: 75.0 mg/kg/injection, schedule: Q04DX003 (ip), vehicle: saline with Tween-80) 195 % of control and 218 % of control; (dose: 90.0 mg/kg/injection, schedule: Q04DX003 (ip), vehicle: water) 155 % of control; (dose: 150.0 mg/kg/injection, schedule: Q04DX003 (ip), vehicle: saline with Tween-80) 254 % of control; (dose: 300.0 mg/kg/injection, schedule: Q04DX003 (ip), vehicle: saline with Tween-80) 86 % of control.

As to `COc1ccc(NC(=O)NNC(N)=S)cc1`, the T/C under setting [1] is 96 % of control and the T/C under setting [2] was 91 % of control.

As for `CCOC(=O)C(NC(=O)c1ccccc1)C(C)(C)SCc1ccccc1` (centres undefined), the T/C by setting is: under setting [6], 103 % of control; under setting [7], 101 % of control; under setting [8], 95 % of control.

As for `CCn1c2nc(=O)[nH]c(=O)c-2cc2ccccc21`, the T/C (dose: 45.0 mg/kg/injection, schedule: Q01DX009 (ip), vehicle: saline with Tween-80) was 113 % of control; the T/C (dose: 90.0 mg/kg/injection, schedule: Q01DX009 (ip), vehicle: saline with Tween-80) is 103 % of control; the T/C (dose: 180.0 mg/kg/injection, schedule: Q01DX009 (ip), vehicle: saline with Tween-80) was 101 % of control.

Consider `COc1ccc(S(=O)(=O)N/N=C\c2cc([N+](=O)[O-])cc([N+](=O)[O-])c2O)c(OC)c1OC`, for which the T/C is 102 % of control under setting [6], 107 % of control under setting [7] and 99 % of control under setting [8].

With `CC1=CCCC(C(C)O)O1` (centres undefined), the T/C (dose: 6.25 mg/kg/injection, schedule: Q01DX009 (ip), vehicle: saline) was 107 % of control; the T/C (dose: 12.5 mg/kg/injection, schedule: Q01DX009 (ip), vehicle: saline) was 104 % of control; the T/C (dose: 25.0 mg/kg/injection, schedule: Q01DX009 (ip), vehicle: saline) is 105 % of control; the T/C (dose: 200.0 mg/kg/injection, schedule: Q01DX009 (ip), vehicle: saline) is 87 % of control.

On to `c1ccc2c(NCCCCCCCCCCNc3c4ccccc4nc4ccccc34)c3ccccc3nc2c1`, for which the T/C by setting is: (dose: 0.62 mg/kg/injection, schedule: Q## X009 (ip), vehicle: lactic acid) 104 % of control; (dose: 1.25 mg/kg/injection, schedule: Q## X009 (ip), vehicle: lactic acid) 118 % of control; (dose: 5.0 mg/kg/injection, schedule: Q## X009 (ip), vehicle: lactic acid) 120 % of control; (dose: 10.0 mg/kg/injection, schedule: Q## X009 (ip), vehicle: lactic acid) 90 % of control.

Take `COc1cccc2c1C(=O)c1c(O)c3c(c(O)c1C2=O)C[C@@](O)(C(C)=O)CC3OC1CC(N/C(C)=C/C(=O)c2ccccc2)C(O)C(C)O1` (some centres undefined): the T/C was 105 % of control (dose: 6.25 mg/kg/injection, schedule: Q04DX003 (ip), vehicle: saline with Tween-80); 104 % of control (dose: 12.5 mg/kg/injection, schedule: Q04DX003 (ip), vehicle: saline with Tween-80); 105 % of control and 107 % of control (dose: 25.0 mg/kg/injection, schedule: Q04DX003 (ip), vehicle: saline with Tween-80); 101 % of control and 111 % of control (dose: 50.0 mg/kg/injection, schedule: Q04DX003 (ip), vehicle: saline with Tween-80).

As for `O=S1(=O)N=C(N2CCOCC2)c2ccccc21`, the T/C is, setting by setting: under setting [6], 101 % of control; under setting [7], 101 % of control; under setting [8], 99 % of control.

`CCc1ccccc1C1(Br)C(=O)c2ccccc2C1=O`: the T/C was 102 % of control (dose: 100.0 mg/kg/injection, schedule: Q04DX002 (ip), vehicle: saline); 100 % of control (dose: 200.0 mg/kg/injection, schedule: Q04DX002 (ip), vehicle: saline); 101 % of control (dose: 400.0 mg/kg/injection, schedule: Q04DX002 (ip), vehicle: saline).
